Experiment in all cases: Test C plant response
What all share (format): in vivo
What all share (details): Preemergence, scale 0 to 100

Assay [1] relates to spring wheat (Triticum aestivum).
The test system of assay [2] is green foxtail (Setaria viridis).
Assay [3] deals with buckwheat (wild buckwheat, Polygonum convolvulus).
Assay [4] concerns galium (catchweed bedstraw, Galium aparine).

The record followed here is patent publication US8952024B2, “Herbicidal pyrimidone derivatives” (E I du Pont de Nemours and Company, priority 2009, dated 2015).

Molecules are shown by their SMILES.

For `O=C1CCCC(O)=C1C(=O)c1cnc(-c2ccccc2)n(-c2ccccc2)c1=O` [Compound 2, 5-[(2-hydroxy-6-oxo-1-cyclohexen-1-yl)carbonyl]-2,3-diphenyl-4(3H)-pyrimidinone], the “Plant response rating: Wheat, Spring” value in assay [1] (62 g ai/ha), in assay [1] (125 g ai/ha), in assay [1] (16 g ai/ha) and in assay [1] (31 g ai/ha) was 0 throughout. For the same molecule, the “Plant response rating: Foxtail, Green” value in assay [2] (62 g ai/ha), in assay [2] (125 g ai/ha), in assay [2] (16 g ai/ha) and in assay [2] (31 g ai/ha) was 0 throughout. Also, the “Plant response rating: Buckwheat, Wild” value in assay [3] (62 g ai/ha), in assay [3] (125 g ai/ha), in assay [3] (16 g ai/ha) and in assay [3] (31 g ai/ha) was 0 in each case. The “Plant response rating: Galium” value stood at 0 in assay [4] (62 g ai/ha) and 50 in assay [4] (125 g ai/ha).
